Experimental data as given in patent US7387998B2, “STQ peptides” (New York University, priority 2003, dated 2008).
Where a SMILES comes first, the peptide text is derived from it.

Tests used:
[1] = system: Human RPE cells on denatured laminin; test: RPE cell adhesion to denatured laminin; type: cell-based; conditions: for blockade of RPE cell adhesion to denatured laminin: 30 min attachment, crystal violet OD 600 nm
Protocol: In vitro cell adhesion assays were conducted to determine whether the STQ-peptides bind to functional epitopes within denatured laminin that regulate cellular adhesion. Non-tissue culture treated 48-well plates were coated with denatured laminin. Human RPE cells were allowed to attach to the coated wells in the absence of STQ-peptide, in the presence of STQ-peptide at a concentration of 100 μg/ml, and in the presence of STQ-peptide at a concentration of 200 μg/ml.
(§1) Human denatured laminin (25 μg/ml) was immobilized on 48-well non-tissue culture treated plates. Wells were washed and incubated with 1% BSA (bovine serum albumin) in PBS (phosphate-buffered saline) for one hour at 37° C. Subconfluent RPE cells were harvested, washed, and resuspended in adhesion buffer containing RPMI-1640 medium, 1 mM MgCl2, 0.2 mM MnCl2, and 0.5% BSA. RPE cells (10^5) were resuspended in 200 μl of the adhesion buffer in the presence or absence of STQ-peptide at a concentration of 100 μg/ml or 200 μg/ml, and were added to each well and allowed to attach for 30 minutes at 37° C. The unattached cells were removed and the attached cells were stained for 10 minutes with crystal violet as described by Petitclerc, et al., Cancer Res. 1999; 59:2724-2730. The wells were washed three times with PBS and cell-associated crystal violet was eluted by addition of 100 μl of 10% acetic acid. Cell adhesion was quantified by measuring the optical density of eluted crystal violet at a wavelength of 600 nm.
A set of non-tissue culture treated 48-well plates were coated with native laminin in the presence of different concentrations of STQ-peptide according to the method described in Example 2 and by Petticlerc, et al., Cancer Res. 1999; 59:2724-2730. Another set of non-tissue culture treated plates were coated with denatured laminin in the presence of different concentrations of STQ-peptide. […] STQ-peptide had little effect on RPE cell adhesion to the wells coated with native laminin at any concentration of STQ-peptide tested (FIG. 3).

[2] = system: bFGF-induced angiogenesis in chorioallantoic membrane (CAM); test: bFGF-induced angiogenesis in the chick CAM model; type: in vivo; conditions: single intravenous injection 100 ug/embryo
Text: One angiogenesis assay measures angiogenesis in the chick chorioallantoic membrane (CAM) and is referred to as the CAM assay. The CAM assay is well known among those of ordinary skill in the art and has been used to measure both angiogenesis and neovascularization of tumor tissues (Ausprunk et al., Am. J. Pathol. 1975; 79:597-618 and Ossonski et al., Cancer Res. 1980; 40:2300-2309).
Angiogenesis was induced within the chorioallantoic membrane (CAM) of 10-day old chick embryos with bFGF. Twenty-four hours later, 8-10 of the embryos were treated with a single intravenous injection of STQ-peptide (100 ug/embryo). At the end of a 3-day incubation period, the CAM tissues were removed for analysis. […] The single injection of STQ-peptide inhibited bFGF by greater than 95% (FIG. 4). […] Eight to ten chick embryos were tested in each of the two groups, and the experiment was repeated three times for a total of 24-30 chick embryos tested.

[3] = system: RPE cells on native laminin; test: RPE cell adhesion to native laminin; type: cell-based, human; conditions: any concentration of STQ-peptide tested (FIG. 3)
Protocol: as §1
A set of non-tissue culture treated 48-well plates were coated with native laminin in the presence of different concentrations of STQ-peptide according to the method described in Example 2 and by Petticlerc, et al., Cancer Res. 1999; 59:2724-2730. […]

[4] = system: metastatic B16 melanoma cells; test: B16 melanoma metastasis in chick embryo lungs; type: in vivo; conditions: 100 ug/embryo intravenously with cells; 7 days incubation; versus no-STQ-peptide group
Protocol: Twelve-day old chick embryos (obtained from SPAFAS, North Franklin, Conn.) were injected intravenously with metastatic B16 melanoma cells (Chambers, et al., J. Natl. Cancer Inst. 1992; 84:797-803) in the presence or absence of STQ-peptide (100 ug/embryo). For each experiment, eight to ten chicks were tested under each set of conditions, and the experiment was repeated three times. The embryos were incubated for 7 days and then sacrificed. The chick lungs were analyzed for metastasis. B16 melanoma metastases appeared as discrete black lesions. The metastases were quantified by counting the B16 tumor lesions on the surface of the chick lungs for the STQ-peptide and no-STQ-peptide groups. B16 melanoma metastasis was inhibited by greater than 95% in the STQ-peptide group as compared to the no-STQ-peptide group (FIG. 5).

[5] = system: murine B16 melanoma cells on denatured laminin; test: B16 melanoma cell adhesion to denatured laminin; type: cell-based; conditions: STQ-peptide-S 50 μg/ml
Protocol: as §1
(§2) An adhesion assay was performed according to the method described in Example 2 and by Petticlerc, et al., Cancer Res. 1999; 59:2724-2730. Non-tissue culture treated 48-well plates were coated with denatured laminin in the absence of STQ-peptide-S and in the presence of STQ-peptide-S at a concentration of 50 μg/ml. […]

[6] = system: Human M21 melanoma cells on denatured laminin; test: M21 melanoma cell adhesion to denatured laminin; type: cell-based; conditions: STQ-peptide-S 50 μg/ml
Protocol: as §1, §2

| Compound | blockade of RPE cell adhesion to denatured laminin ([1]; STQ-peptide 100 μg/ml) | blockade of RPE cell adhesion to denatured laminin ([1]; STQ-peptide 200 μg/ml) | inhibition of RPE cell adhesion to wells coated with denatured laminin ([1]; different concentrations of STQ-peptide (FIG. 3)) | adverse effects following injection ([2]; chick embryos) | inhibition of bFGF-induced angiogenesis (branching vessels) ([2]; 24 h after bFGF, 3-day incubation) | effect on RPE cell adhesion to wells coated with native laminin [3] | inhibition of B16 melanoma metastasis (lung surface lesions) [4] | blockade of B16 melanoma cell adhesion to denatured laminin [5] | blockade of M21 melanoma cell adhesion to denatured laminin [6] |
| --- | --- | --- | --- | --- | --- | --- | --- | --- | --- |
| CC[C@H](C)[C@H](NC(=O)[C@H](CC(C)C)NC(=O)[C@H](CO)NC(=O)[C@H](CC(C)C)NC(=O)[C@H](CC(C)C)NC(=O)[C@H](CCC(N)=O)NC(=O)[C@H](C)NC(=O)[C@H](CC(N)=O)NC(=O)[C@H](CCC(N)=O)NC(=O)[C@@H](NC(=O)[C@H](CO)NC(=O)[C@H](CS)NC(=O)CNC(=O)CNC(=O)[C@@H](N)CCCCN)[C@@H](C)O)C(=O)N[C@H](C(=O)NCC(=O)N[C@@H](CCCCN)C(=O)N[C@@H](C)C(=O)O)C(C)C [STQ-peptide, NH2-K-G-G-C-S-T-Q-N-A-Q-L-L-S-L-I-V-G-K-A-COOH] (H-KGGCSTQNAQLLSLIVGKA-OH) | greater than 95% | greater than 95% | concentration dependent inhibition | No adverse effects | greater than 95% | little effect | greater than 95% |  |  |
| NH2-K-G-G-S-T-Q-N-A-Q-L-L-S-L-I-V-G-K-A-COOH (H-KGGSTQNAQLLSLIVGKA-OH) [STQ-peptide-S] |  |  |  |  |  |  |  | approximately 80% | approximately 80% |
